{
  "source": "paper PMC10909431",
  "about": "(Journal of Peptide Science, 2023)",
  "key": {"IR‐A": {"target": "T1, IR‐A (Homo sapiens, UniProt P06213)", "T1 construct": "for IR‐A in cell membranes of human IM‐9 lymphocytes (ATCC); host or cells: human IM-9 lymphocytes (cell membranes)", "T1 sequence (P06213 28-1370 isoform P06213-2 limits assumed)": "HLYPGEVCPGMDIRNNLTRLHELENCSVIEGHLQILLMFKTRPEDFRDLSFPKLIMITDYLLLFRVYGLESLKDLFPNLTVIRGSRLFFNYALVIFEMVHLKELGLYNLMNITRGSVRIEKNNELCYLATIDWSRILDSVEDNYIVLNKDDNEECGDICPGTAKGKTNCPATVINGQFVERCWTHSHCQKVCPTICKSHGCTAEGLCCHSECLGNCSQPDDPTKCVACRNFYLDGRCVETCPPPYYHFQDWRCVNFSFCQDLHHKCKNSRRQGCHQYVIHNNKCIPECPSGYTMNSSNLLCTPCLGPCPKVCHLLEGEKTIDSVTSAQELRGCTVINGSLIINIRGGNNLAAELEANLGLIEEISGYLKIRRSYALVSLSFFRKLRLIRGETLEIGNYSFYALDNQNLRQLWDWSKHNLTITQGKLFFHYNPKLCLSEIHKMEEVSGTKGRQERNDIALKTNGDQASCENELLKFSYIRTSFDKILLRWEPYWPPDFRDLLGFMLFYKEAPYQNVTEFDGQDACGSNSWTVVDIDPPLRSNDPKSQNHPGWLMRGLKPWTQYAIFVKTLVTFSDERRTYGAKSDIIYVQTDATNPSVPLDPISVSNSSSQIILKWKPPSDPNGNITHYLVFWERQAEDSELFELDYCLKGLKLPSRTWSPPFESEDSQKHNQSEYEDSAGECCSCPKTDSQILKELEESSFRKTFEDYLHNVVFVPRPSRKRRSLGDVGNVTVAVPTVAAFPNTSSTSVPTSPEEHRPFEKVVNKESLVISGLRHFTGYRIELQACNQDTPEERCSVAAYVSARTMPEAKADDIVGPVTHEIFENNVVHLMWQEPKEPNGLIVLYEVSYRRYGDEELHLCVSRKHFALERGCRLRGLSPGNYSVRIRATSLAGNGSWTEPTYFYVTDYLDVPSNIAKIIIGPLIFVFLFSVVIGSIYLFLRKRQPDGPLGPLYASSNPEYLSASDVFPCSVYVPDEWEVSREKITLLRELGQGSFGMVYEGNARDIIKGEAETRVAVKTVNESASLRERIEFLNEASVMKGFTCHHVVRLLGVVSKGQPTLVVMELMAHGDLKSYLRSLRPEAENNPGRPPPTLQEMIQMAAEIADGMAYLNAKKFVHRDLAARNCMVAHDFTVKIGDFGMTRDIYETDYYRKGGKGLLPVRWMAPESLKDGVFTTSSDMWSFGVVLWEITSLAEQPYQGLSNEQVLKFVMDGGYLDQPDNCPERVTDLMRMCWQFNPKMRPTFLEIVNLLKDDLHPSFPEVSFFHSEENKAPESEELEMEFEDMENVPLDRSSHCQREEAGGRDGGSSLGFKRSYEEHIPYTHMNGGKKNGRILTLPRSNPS", "T1 sequence (P06213 763-1382 partner limits assumed)": "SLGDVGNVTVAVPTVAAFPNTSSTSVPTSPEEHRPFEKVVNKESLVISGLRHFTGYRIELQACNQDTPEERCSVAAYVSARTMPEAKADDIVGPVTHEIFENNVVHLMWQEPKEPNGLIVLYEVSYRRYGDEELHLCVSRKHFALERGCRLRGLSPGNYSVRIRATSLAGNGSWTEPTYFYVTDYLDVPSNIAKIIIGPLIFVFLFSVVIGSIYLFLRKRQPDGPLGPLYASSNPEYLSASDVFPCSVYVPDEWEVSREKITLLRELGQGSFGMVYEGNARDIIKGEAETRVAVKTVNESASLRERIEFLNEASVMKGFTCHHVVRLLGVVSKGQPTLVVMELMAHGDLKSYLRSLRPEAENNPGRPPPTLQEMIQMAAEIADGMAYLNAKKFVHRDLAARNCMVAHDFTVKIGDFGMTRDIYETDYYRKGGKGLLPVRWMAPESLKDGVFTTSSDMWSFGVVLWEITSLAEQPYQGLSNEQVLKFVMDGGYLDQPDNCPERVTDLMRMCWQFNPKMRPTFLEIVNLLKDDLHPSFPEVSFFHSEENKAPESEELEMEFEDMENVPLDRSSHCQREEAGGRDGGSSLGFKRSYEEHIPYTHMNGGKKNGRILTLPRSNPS", "assay": "Receptor-binding: competition with [125I]-monoiodotyrosyl-TyrA14-insulin for IR-A in IM-9 cell membranes", "details": "cell membranes of human IM-9 lymphocytes, each curve in duplicate, Kd from at least three binding curves, ± S.D., SD", "experimental": "The binding curve of each analog was determined in duplicate, and the final dissociation constant (K d) was calculated from at least three binding curves."}, "IR [1]": {"target": "IR", "details": "cited from earlier work", "source_text": "Scientific teams from Novo Nordisk A/S and Antyra, Inc., used the technique of expressing libraries of peptide sequences on the surface of bacteriophage and, by testing their binding affinities, discovered a number of peptides that bound very efficiently to IR while activating or inhibiting it.[19], [20]"}, "[2]": {"tested_on": "insulin effect on plasma glucose", "details": "cited from earlier work", "source_text": "(§1) Scientific teams from Novo Nordisk A/S and Antyra, Inc., used the technique of expressing libraries of peptide sequences on the surface of bacteriophage and, by testing their binding affinities, discovered a number of peptides that bound very efficiently to IR while activating or inhibiting it.[19], [20] […] One of these peptides was […] or S592, which bound only to bindi ..."}, "[3]": {"tested_on": "insulin‐stimulated lipogenesis in cells", "details": "cited from earlier work", "source_text": "as §1"}, "IR [4]": {"tested_on": "IR", "details": "cited from earlier work; for agonistic or antagonistic activities: peptides tested separately"}},
  "note": "Read-outs that look alike come from different tables or passages of the source. Numbered stars: 1 amine (or outer) side, 2 acyl side, 3 side chain; on linkers, the order of the positions; unused ones are H or OH. Bridge positions count the residues as written; N and C are the ends. Square brackets hold non-standard residues; d marks the D form. Triazole bridges read from a SMILES are 1,4-linked. Ends that are not written are not given here. Peptide text beside a SMILES is read from it. Orn(N3) = [N-]=[N+]=NCCC[C@H](N)C(=O)O; S5 = C=CCCC[C@](C)(N)C(=O)O; X1 = c1c(C[*:2])nnn1CC[*:1]; Pra = C#CC[C@H](N)C(=O)O",
  "data": [
    {"compound": "CC[C@H](C)[C@H](NC(=O)[C@H](CCC(N)=O)NC(=O)[C@H](C)NC(=O)[C@H](Cc1c[nH]c2ccccc12)NC(=O)[C@H](CCC(=O)O)NC(=O)[C@H](CCC(=O)O)NC(=O)[C@H](CCC(=O)O)NC(=O)[C@H](CC(C)C)NC(=O)[C@@H](N)CO)C(=O)N[C@@H](CCC(=O)O)C(=O)N[C@H]1CSSC[C@@H](C(=O)N2CCC[C@H]2C(=O)N[C@@H](CO)C(N)=O)NC(=O)CNC(=O)[C@H](CCCNC(=N)N)NC(=O)CNC(=O)[C@H](Cc2c[nH]c3ccccc23)NC(=O)[C@H](C(C)C)NC(=O)[C@H](CCC(=O)O)NC1=O", "note": "[peptide 1] (H-SLEEEWAQIECEVWGRGCPS-NH2; disulfide 11-18)", "values": [
      {"measurement": "Kd", "setting": "IR‐A", "result": "3.9 ± 1", "unit": "nM"}
    ]},
    {"compound": "CC[C@H](C)[C@H](NC(=O)[C@H](CCC(N)=O)NC(=O)[C@H](C)NC(=O)[C@H](Cc1c[nH]c2ccccc12)NC(=O)[C@H](CCC(=O)O)NC(=O)[C@H](CCC(=O)O)NC(=O)[C@H](CCC(=O)O)NC(=O)[C@H](CC(C)C)NC(=O)[C@@H](N)CO)C(=O)N[C@@H](CCC(=O)O)C(=O)N[C@@]1(C)CCCC=CCCC[C@@](C)(C(=O)N2CCC[C@H]2C(=O)N[C@@H](CO)C(N)=O)NC(=O)CNC(=O)[C@H](CCCNC(=N)N)NC(=O)CNC(=O)[C@H](Cc2c[nH]c3ccccc23)NC(=O)[C@H](C(C)C)NC(=O)[C@H](CCC(=O)O)NC1=O", "note": "[peptide 2] (H-SLEEEWAQIE[S5]EVWGRG[S5]PS-NH2; staple 11-18)", "values": [
      {"measurement": "Kd", "setting": "IR‐A", "result": "49 ± 6", "unit": "nM"}
    ]},
    {"compound": "CC[C@H](C)[C@H](NC(=O)[C@H](CCC(N)=O)NC(=O)[C@H](C)NC(=O)[C@H](Cc1c[nH]c2ccccc12)NC(=O)[C@H](CCC(=O)O)NC(=O)[C@H](CCC(=O)O)NC(=O)[C@H](CCC(=O)O)NC(=O)[C@H](CC(C)C)NC(=O)[C@@H](N)CO)C(=O)N[C@@H](CCC(=O)O)C(=O)N[C@H]1CCCn2cc(nn2)C[C@@H](C(=O)N2CCC[C@H]2C(=O)N[C@@H](CO)C(N)=O)NC(=O)CNC(=O)[C@H](CCCNC(=N)N)NC(=O)CNC(=O)[C@H](Cc2c[nH]c3ccccc23)NC(=O)[C@H](C(C)C)NC(=O)[C@H](CCC(=O)O)NC1=O", "note": "[peptide 3] (H-SLEEEWAQIE[Orn(N3)]EVWGRG[Pra]PS-NH2; triazole 11-18)", "values": [
      {"measurement": "Kd", "setting": "IR‐A", "result": "15 ± 3", "unit": "nM"}
    ]},
    {"compound": "CC[C@H](C)[C@H](NC(=O)[C@H](CCC(N)=O)NC(=O)[C@H](C)NC(=O)[C@H](Cc1c[nH]c2ccccc12)NC(=O)[C@H](CCC(=O)O)NC(=O)[C@H](CCC(=O)O)NC(=O)[C@H](CCC(=O)O)NC(=O)[C@H](CC(C)C)NC(=O)[C@@H](N)CO)C(=O)N[C@@H](CCC(=O)O)C(=O)N[C@H]1CSCCn2cc(nn2)CSC[C@@H](C(=O)N2CCC[C@H]2C(=O)N[C@@H](CO)C(N)=O)NC(=O)CNC(=O)[C@H](CCCNC(=N)N)NC(=O)CNC(=O)[C@H](Cc2c[nH]c3ccccc23)NC(=O)[C@H](C(C)C)NC(=O)[C@H](CCC(=O)O)NC1=O", "note": "[peptide 4] (H-SLEEEWAQIECEVWGRGCPS-NH2; linker 11-18 via X1)", "values": [
      {"measurement": "Kd", "setting": "IR‐A", "result": "25 ± 7", "unit": "nM"}
    ]},
    {"compound": "CC[C@H](C)[C@H](NC(=O)[C@H](CCC(N)=O)NC(=O)[C@H](C)NC(=O)[C@H](Cc1c[nH]c2ccccc12)NC(=O)[C@H](CCC(=O)O)NC(=O)[C@H](CCC(=O)O)NC(=O)[C@H](CCC(=O)O)NC(=O)[C@H](CC(C)C)NC(=O)[C@@H](N)CO)C(=O)N[C@@H](CCC(=O)O)C(=O)N[C@H]1CSCCn2cc(nn2)COC[C@@H](C(=O)N2CCC[C@H]2C(=O)N[C@@H](CO)C(N)=O)NC(=O)CNC(=O)[C@H](CCCNC(=N)N)NC(=O)CNC(=O)[C@H](Cc2c[nH]c3ccccc23)NC(=O)[C@H](C(C)C)NC(=O)[C@H](CCC(=O)O)NC1=O", "note": "[peptide 5] (H-SLEEEWAQIECEVWGRGSPS-NH2; linker 11-18 via X1)", "values": [
      {"measurement": "Kd", "setting": "IR‐A", "result": "75 ± 29", "unit": "nM"}
    ]},
    {"compound": "#SLEEEWAQIE C EVYGR C PPSES‐amide (disulfide) [IM172N22, peptide representing the Site 2 part of IM459]", "values": [
      {"measurement": "Kd", "setting": "IR [1]; read-out: binding affinity", "result": 3.1, "unit": "nM"}
    ]},
    {"compound": "#SLEQEWaKIE C EVYGK C PPKKAyKWFERQLK‐amide (disulfide) [IM459, variant of S519 with several modifications, IR agonist]", "values": [
      {"measurement": "ability to activate IR", "setting": "IR [1]", "result": "retains the ability to activate IR (agonist)"}
    ]},
    {"compound": "GSLDESFYDWFERQLGGGSGGSSLEEEWAQIQ C EVWGRG C PSY (disulfide) [S961, Site 1–linker–Site 2 fusion peptide with free C-terminus, IR antagonist]", "values": [
      {"measurement": "binding affinities for IR", "setting": "IR [1]", "result": "native insulin‐like binding affinities"},
      {"measurement": "inhibition of the insulin effect on plasma glucose in mice", "setting": "[2]", "result": "fully inhibit"},
      {"measurement": "inhibition of insulin‐stimulated lipogenesis in cells", "setting": "[3]", "result": "fully inhibit"}
    ]},
    {"compound": "GSLDESFYDWFERQLGGGSGGSSLEEEWAQIQ C EVWGRG C PSY‐amide (disulfide) [S661, Site 1–linker–Site 2 fusion peptide with amidated C-terminus, IR antagonist]", "values": [
      {"measurement": "binding affinities for IR", "setting": "IR [1]", "result": "native insulin‐like binding affinities"},
      {"measurement": "inhibition of the insulin effect on plasma glucose in mice", "setting": "[2]", "result": "fully inhibit"},
      {"measurement": "inhibition of insulin‐stimulated lipogenesis in cells", "setting": "[3]", "result": "fully inhibit"}
    ]},
    {"compound": "GSLDESFYDWFERQLGGGSGGSSLEEEWAQIQSEVWGRGSPSY-NH2 [Cys → Ser in S661, S661 variant with cysteines mutated to serines, without the disulfide bridge]", "values": [
      {"measurement": "change of antagonistic activity versus S661", "setting": "IR [4]; inhibition of insulin-stimulated IR phosphorylation in cells", "result": "eightfold decrease"}
    ]},
    {"compound": "GSLDESFYDWFERQLGKK [S371]", "values": [
      {"measurement": "agonistic or antagonistic activities", "setting": "IR [4]", "result": "did not detect any agonistic or antagonistic activities"}
    ]},
    {"compound": "SLEEEWAQ-NH2 [N-terminal segment peptide of the Site 2 mimetics, without the cyclized part]", "values": [
      {"measurement": "Kd", "setting": "IR [1]; read-out: binding affinity", "result": 900, "unit": "nM"}
    ]},
    {"compound": "SLEEEWAQIE C EVWGRG C PSY (disulfide) [S592]", "values": [
      {"measurement": "activation of the receptor", "setting": "IR [1]", "result": "does not activate the receptor"},
      {"measurement": "Kd", "setting": "IR [1]; read-out: K d for binding to the IR", "result": 1.7, "unit": "nM"}
    ]},
    {"compound": "SLEEEWAQIQSEVWGRGSPSYC [Cys → Ser in S592, Site 2 peptide with Cys-to-Ser mutations produced by Brandt et al]", "values": [
      {"measurement": "insulin signal remaining", "setting": "IR [4]; 1 nM insulin, peptide at the concentration 100 nM", "result": "50–60%"},
      {"measurement": "agonistic or antagonistic activities", "setting": "IR [4]", "result": "did not detect any agonistic or antagonistic activities"}
    ]},
    {"compound": "SLEEEWAQVE C EVYGRG C PSGSLDESFYDWFERQLG (disulfide) [S519, Site 2–Site 1 fusion peptide, IR agonist]", "values": [
      {"measurement": "agonism / antagonism of IR", "setting": "IR [1]", "result": "did not show antagonistic effects and instead agonized IR"},
      {"measurement": "binding to IR", "setting": "IR [1]", "result": "very high affinity"}
    ]}
  ]
}
